Measurements: the NIST ThermoML archive (doi:10.1021/je8002699)
± gives the expanded uncertainty stated by the source.

Tests used:
[1] = refractive index (Na D-line) (dimensionless); xn = mol fraction of the nth substance listed; conditions: 101 kPa, Liquid
[2] = xn = mol fraction of the nth substance listed; conditions: for mass density / speed of sound / viscosity: 101 kPa, Liquid

CC(=O)CC(C)(C)O [4-hydroxy-4-methylpentan-2-one] + CCc1ccccc1
Conditions | mass density, [2] [kg/m3] | refractive index, [1] | speed of sound, [2] [m/s] | surface tension liquid-gas, [2] [mN/m] | viscosity, [2] [mPa·s]
303.15 K, x1 = 0.1814 | 880.9 ± 4 | 1.4864 ± 0.0026 | 1322 ± 6 | 29.92 ± 0.85 | 1.02 ± 0.075
303.15 K, x1 = 0.2621 | 886.6 ± 4 | 1.4813 ± 0.0026 | 1316 ± 6 | 29.88 ± 0.85 | 1.191 ± 0.086
303.15 K, x1 = 0.3445 | 892.5 ± 4 | 1.4753 ± 0.0026 | 1311 ± 6 | 29.84 ± 0.85 | 1.35 ± 0.097
303.15 K, x1 = 0.4219 | 898 ± 4.1 | 1.4701 ± 0.0026 | 1305 ± 6 | 29.8 ± 0.85 | 1.511 ± 0.11
303.15 K, x1 = 0.5447 | 906.5 ± 4.1 | 1.4599 ± 0.0026 | 1296 ± 6 | 29.76 ± 0.85 | 1.752 ± 0.12
303.15 K, x1 = 0.6624 | 914.7 ± 4.1 | 1.4505 ± 0.0025 | 1286 ± 6 | 29.71 ± 0.85 | 2.001 ± 0.14
303.15 K, x1 = 0.7667 | 922 ± 4.2 | 1.4425 ± 0.0025 | 1277 ± 6 | 29.62 ± 0.85 | 2.266 ± 0.16
303.15 K, x1 = 0.8388 | 926.5 ± 4.2 | 1.4373 ± 0.0025 | 1271 ± 6 | 29.58 ± 0.85 | 2.433 ± 0.17
303.15 K, x1 = 0.9219 | 931.5 ± 4.3 | 1.43 ± 0.0025 | 1264 ± 6 | 29.5 ± 0.85 | 2.66 ± 0.18
303.15 K, x1 = 1 | 936 ± 4.3 | 1.4239 ± 0.0025 | 1256 ± 6 | 29.44 ± 0.85 | 2.89 ± 0.19
313.15 K, x1 = 0.1814 | 856 ± 4 | 1.479 ± 0.0026 | 1271 ± 6 | 29.04 ± 0.83 | 0.9211 ± 0.069
313.15 K, x1 = 0.2621 | 861.8 ± 4 | 1.4741 ± 0.0026 | 1265 ± 6 | 29.04 ± 0.84 | 1.066 ± 0.078
313.15 K, x1 = 0.3445 | 867.8 ± 4.1 | 1.469 ± 0.0026 | 1257 ± 6 | 29.03 ± 0.84 | 1.234 ± 0.089
313.15 K, x1 = 0.4219 | 873.3 ± 4.1 | 1.4637 ± 0.0026 | 1250 ± 6 | 29.03 ± 0.84 | 1.4 ± 0.1
313.15 K, x1 = 0.5447 | 882.2 ± 4.2 | 1.454 ± 0.0025 | 1237 ± 6 | 29.03 ± 0.84 | 1.501 ± 0.11
313.15 K, x1 = 0.6624 | 890.8 ± 4.2 | 1.4458 ± 0.0025 | 1224 ± 5 | 29.03 ± 0.84 | 1.688 ± 0.12
313.15 K, x1 = 0.7667 | 897.5 ± 4.3 | 1.4384 ± 0.0025 | 1212 ± 5 | 29.03 ± 0.84 | 1.911 ± 0.13
313.15 K, x1 = 0.8388 | 902.2 ± 4.3 | 1.4335 ± 0.0025 | 1204 ± 5 | 29 ± 0.84 | 2.377 ± 0.16
313.15 K, x1 = 0.9219 | 907.6 ± 4.3 | 1.4264 ± 0.0025 | 1194 ± 5 | 28.95 ± 0.84 | 2.511 ± 0.17
313.15 K, x1 = 1 | 912.1 ± 4.4 | 1.4198 ± 0.0025 | 1183 ± 5 | 28.92 ± 0.84 | 2.791 ± 0.19
323.15 K, x1 = 0.1814 | 845.9 ± 4.2 | 1.4721 ± 0.0026 | 1192 ± 5 | 27.97 ± 0.81 | 0.7842 ± 0.06
323.15 K, x1 = 0.2621 | 851.6 ± 4.2 | 1.4675 ± 0.0026 | 1186 ± 5 | 27.9 ± 0.81 | 0.8814 ± 0.067
323.15 K, x1 = 0.3445 | 857.5 ± 4.3 | 1.4624 ± 0.0026 | 1180 ± 5 | 27.82 ± 0.81 | 0.9901 ± 0.074
323.15 K, x1 = 0.4219 | 863 ± 4.3 | 1.4518 ± 0.007 | 1175 ± 5 | 27.75 ± 0.81 | 1.011 ± 0.075
323.15 K, x1 = 0.5447 | 871.5 ± 4.4 | 1.451 ± 0.0025 | 1165 ± 5 | 27.64 ± 0.8 | 1.201 ± 0.087
323.15 K, x1 = 0.6624 | 879.9 ± 4.4 | 1.4433 ± 0.0025 | 1156 ± 5 | 27.53 ± 0.8 | 1.354 ± 0.097
323.15 K, x1 = 0.7667 | 886.6 ± 4.5 | 1.4363 ± 0.0025 | 1146 ± 5 | 27.44 ± 0.8 | 1.521 ± 0.11
323.15 K, x1 = 0.8388 | 891.3 ± 4.5 | 1.4285 ± 0.0025 | 1138 ± 5 | 27.35 ± 0.8 | 1.812 ± 0.13
323.15 K, x1 = 0.9219 | 896.9 ± 4.5 | 1.4225 ± 0.0025 | 1130 ± 5 | 27.24 ± 0.8 | 2.082 ± 0.14
323.15 K, x1 = 1 | 901 ± 4.6 | 1.4151 ± 0.0025 | 1121 ± 5 | 27.12 ± 0.8 | 2.67 ± 0.18

CC(=O)CC(C)(C)O [4-hydroxy-4-methylpentan-2-one] + O=[N+]([O-])c1ccccc1
Conditions | mass density, [2] [kg/m3] | refractive index, [1] | speed of sound, [2] [m/s] | surface tension liquid-gas, [2] [mN/m] | viscosity, [2] [mPa·s]
303.15 K, x1 = 0.1248 | 1163.9 ± 9.9 | 1.5377 ± 0.005 | 1395 ± 6 | 39.8 ± 1.1 | 2.022 ± 0.093
303.15 K, x1 = 0.2389 | 1130.2 ± 9.6 | 1.5245 ± 0.005 | 1378 ± 6 | 38.7 ± 1.1 | 2.161 ± 0.099
303.15 K, x1 = 0.3446 | 1102.1 ± 9.4 | 1.5113 ± 0.005 | 1363 ± 6 | 37.5 ± 1 | 2.282 ± 0.1
303.15 K, x1 = 0.4921 | 1062 ± 9 | 1.4931 ± 0.005 | 1341 ± 6 | 35.9 ± 1 | 2.45 ± 0.11
303.15 K, x1 = 0.5853 | 1038 ± 8.8 | 1.4822 ± 0.005 | 1327 ± 6 | 34.7 ± 0.97 | 2.562 ± 0.12
303.15 K, x1 = 0.6427 | 1023 ± 8.7 | 1.474 ± 0.005 | 1317 ± 6 | 34 ± 0.96 | 2.624 ± 0.12
303.15 K, x1 = 0.7532 | 995.6 ± 8.4 | 1.4601 ± 0.005 | 1298 ± 6 | 32.7 ± 0.93 | 2.735 ± 0.12
303.15 K, x1 = 0.8226 | 979.1 ± 8.3 | 1.45 ± 0.005 | 1287 ± 6 | 31.7 ± 0.9 | 2.791 ± 0.13
303.15 K, x1 = 0.9349 | – | 1.43 ± 0.005 | 1263 ± 6 | 29.5 ± 0.85 | 2.889 ± 0.13
303.15 K, x1 = 1 | 936 ± 7.9 | 1.4239 ± 0.005 | 1256 ± 6 | 29.44 ± 0.85 | 2.89 ± 0.13
313.15 K, x1 = 0.1248 | 1157.7 ± 11 | 1.5351 ± 0.005 | 1304 ± 6 | 37.45 ± 1 | 1.752 ± 0.082
313.15 K, x1 = 0.2389 | 1120.9 ± 10 | 1.521 ± 0.005 | 1290 ± 6 | 36.6 ± 1 | 1.931 ± 0.089
313.15 K, x1 = 0.3446 | 1088.8 ± 10 | 1.508 ± 0.005 | 1277 ± 6 | 35.6 ± 0.99 | 2.137 ± 0.098
313.15 K, x1 = 0.4921 | 1046.3 ± 9.6 | 1.4897 ± 0.005 | 1258 ± 6 | 34.3 ± 0.96 | 2.412 ± 0.11
313.15 K, x1 = 0.5853 | 1019.9 ± 9.4 | 1.4782 ± 0.005 | 1244 ± 6 | 33.4 ± 0.94 | 2.541 ± 0.12
313.15 K, x1 = 0.6427 | 1004.4 ± 9.2 | 1.4706 ± 0.005 | 1236 ± 6 | 32.8 ± 0.93 | 2.661 ± 0.12
313.15 K, x1 = 0.7532 | 975.5 ± 8.9 | 1.4548 ± 0.005 | 1221 ± 5 | 31.7 ± 0.9 | 2.741 ± 0.12
313.15 K, x1 = 0.8226 | 957.8 ± 8.7 | 1.4456 ± 0.005 | 1211 ± 5 | 31 ± 0.89 | 2.764 ± 0.12
313.15 K, x1 = 0.9349 | – | 1.4261 ± 0.005 | 1190 ± 5 | 29.4 ± 0.85 | 2.79 ± 0.13
313.15 K, x1 = 1 | 912 ± 8.3 | 1.4198 ± 0.005 | 1183 ± 5 | 28.92 ± 0.84 | 2.791 ± 0.13
323.15 K, x1 = 0.1248 | 1146.5 ± 11 | 1.5304 ± 0.005 | 1212 ± 5 | 35.8 ± 0.99 | 1.658 ± 0.078
323.15 K, x1 = 0.2389 | 1109.6 ± 11 | 1.5268 ± 0.01 | 1201 ± 5 | 35 ± 0.97 | 1.843 ± 0.086
323.15 K, x1 = 0.3446 | 1077.5 ± 11 | 1.5048 ± 0.005 | 1192 ± 5 | 34.3 ± 0.96 | 2.018 ± 0.093
323.15 K, x1 = 0.4921 | 1035 ± 10 | 1.486 ± 0.005 | 1178 ± 5 | 33.11 ± 0.93 | 2.32 ± 0.11
323.15 K, x1 = 0.5853 | 999.9 ± 9.9 | 1.475 ± 0.005 | 1169 ± 5 | 32.3 ± 0.91 | 2.492 ± 0.11
323.15 K, x1 = 0.6427 | 993.1 ± 9.8 | 1.4675 ± 0.005 | 1163 ± 5 | 31.8 ± 0.9 | 2.579 ± 0.12
323.15 K, x1 = 0.7532 | 964.3 ± 9.5 | 1.4503 ± 0.005 | 1152 ± 5 | – | 2.651 ± 0.12
323.15 K, x1 = 0.8226 | 946.6 ± 9.3 | 1.4412 ± 0.005 | 1144 ± 5 | 30.1 ± 0.87 | 2.661 ± 0.12
323.15 K, x1 = 0.9349 | 910 ± 8.9 | 1.4215 ± 0.005 | 1128 ± 5 | 28.8 ± 0.84 | 2.67 ± 0.12
323.15 K, x1 = 1 | 901 ± 8.9 | 1.4151 ± 0.005 | 1121 ± 5 | 28.12 ± 0.82 | 2.67 ± 0.12
